The conditions of data set [1]: monomer / monomer residue; cited from earlier work.
Another data set has as its system S. mutans UA159 biofilms. As to the kind of experiment: S. mutans biofilm on sHA discs, topical treatment regimen (Example 2). Format: cell-based, Streptococcus mutans. Conditions: equivalent farnesol dose / controls. The method, then:
Biofilms of S. mutans UA159 were formed on saliva coated hydroxyapatite (sHA) surfaces (12.7 mm in diameter, 1 mm in thickness, Clarkson Chromatography Products Inc., South Williamsport, Pa.) as detailed elsewhere (Koo et al., 2010, J Bacteriol, 192(12):3024-32). […] Disks were pretreated with the above-described solutions for 10 min, washed twice with sterile saline, and transferred back to culture media. […] Biofilms were allowed to form on the discs without interruption for 6 hours at which point a second treatment was applied. The next day, biofilms were treated every 6 hours for a total of 3 treatments and the culture media was changed twice. After 48 hours, the amount of colony forming units (CFU) per dry-weight of biofilms was assessed. Briefly, the biofilms were removed and homogenized, then plated onto blood agar plates, and after incubation at 37° C., 5% CO2, the CFUs were counted as described previously (Koo et al., 2003, J Antimicrob Chemother, 52(5):782-9).

Another data set concerns Streptococcus mutans. Conditions: cited from earlier work.
Data set [2] concerns Streptococcus mutans UA159 biofilms. Kind of data set: S. mutans biofilm on sHA discs, topical treatment regimen (Example 3). Type of data set: cell-based. Conditions: 7 topical applications over 54 h. As for the experimental part: Streptococcus mutans UA159, a well-characterized EPS matrix producing and cariogenic pathogen (W. H. Bowen and H. Koo, Caries Res., 2011, 45, 69-86), was used to assess the effect of nanoparticle-mediated delivery of farnesol on biofilm formation using a topical treatment regimen (Horev et al., ACS Nano, 2015, 9, 2390-2404; Koo et al., J. Antimicrob. Chemother., 2003, 52, 782-789). The treatment solutions were: free nanoparticles (1.9 mg ml^−1 in PBS, pH 7.0), farnesol-loaded nanoparticles (1.9 mg ml^−1 loaded with 0.5 mg ml^−1 farnesol, in PBS, pH 7.0), free farnesol (0.5 mg ml^−1 farnesol, in PBS, pH 7.0, 20% ethanol (EtOH)), vehicle control for free farnesol (PBS, pH 7.0, 20% EtOH), and PBS (pH 7.0). A 20% v/v ethanol solution was used as a vehicle to solubilize free farnesol, which is otherwise insoluble in aqueous media (Koo et al., J. Antimicrob. Chemother., 2003, 52, 782-789). […]
The sHA discs and biofilms were treated for 10 min, washed twice with sterile saline (0.89% NaCl), and transferred to culture media. […] Aliquots of biofilm suspension were serially diluted and plated onto blood agar plates, and after 48 h incubation (37° C. and 5% CO2), the colonies were visually counted. […]

Data set [3] in a line: Encapsulation of fluoride using NPC. Type of data set: physicochemical. Conditions: preliminary studies. From the text:
(§1) In addition, amine fluoride is known to have antibacterial properties.

For the next data set, the system named is S. mutans cells.
Source text: as §1

Data set [4] is described as follows: pKa and protonation values of monomers and polymers. Type of data set: physicochemical. As to conditions: FIG. 22.
The conditions of data set [5]: farnesol on one degradable tether length (6 degradable bonds).

Where “and” joins values, the source holds several entries; their conditions need not be identical. Equal values may be shown once.

Turning to `C=C(C)C(=O)OCCN(CC)CC` [DEAEMA, diethylaminoethyl methacrylate], the pKa of monomer in data set [1] was about 7.

For the compound `C=C(C)C(=O)OCCN(C)C` [DMAEMA, dimethylaminoethyl methacrylate], in data set [1], the pKa of monomer was ~7.2 and 7.2-7.4.

In the case of `C=C(C)C(=O)O` [MAA, methacrylic acid], in data set [1], the pKa of monomer was about 4.6.

`CC(C)=CCCC(C)=CCCC(C)=CCO` [farnesol]: in the data set with S. mutans UA159 biofilms, the “effect on biofilm CFU relative to PBS” value is “no effect on CFU relative to PBS”. Further, the MIC of farnesol with Streptococcus mutans is under 28 µg/mL. For the same compound, the “CFUs per biofilm dry weight / antibiofilm efficacy” value in data set [2] is “only a modest reduction”.

`[F-].[Na+]` [sodium fluoride]: the “compatibility with loading into NPC” value in data set [3] is listed as “not compatible with loading into or onto the NPC”.

As for Amine fluoride, in the data set with S. mutans cells, the biofilm formation result is “inhibit biofilm formation” and the “killing of S. mutans cells” value was “able to kill S. mutans cells at the μM level”.

In the case of Imidazole methacrylate [IMA], the pKa of monomer in data set [1] was 6.9-7.0.

Consider ethylacrylic acid [EAA], for which the pKa of monomer in data set [1] is ~6.3 and 6.3-6.5. Also, the “pKa of synthesized imidazole and ethylacrylic acid functionalities” value in data set [4] worked out at 6.3.

On to “poly(dimethylaminoethyl methacrylate)-b-poly(dimethylaminoethyl methacrylate-co-propylacrylic acid-co-butyl methacrylate) [NPC]”, for which the “duration of sustained delivery of farnesol” value in data set [5] was “up to 6 days”.

For propylacrylic acid [PAA], in data set [1], the pKa of monomer was ~7 and 6.8-7.0.

The record behind these values is patent publication US20210330599A1, “Nanoparticles for Controlled Release of Anti-Biofilm Agents and Methods of Use” (University of Rochester, priority 2016, published 2021).
